Results published in ChEMBL document CHEMBL3045595, “Synthesis and characterization of new types of 2-(6-methoxy-2-naphthyl)propionamide derivatives as potential antibacterial and antifungal agents” (2013).
≈ marks a conversion by molar mass, not a printed value. Calls of active or inactive are those of the source. The rule behind the calls is not given here.

What was measured:
Type in all cases: functional
Candida albicans [1] = test: Antifungal activity against Candida albicans RCMB 05035 at 1 mg/ml after 72 hrs by agar well diffusion method; conditions: for zone of inhibition at 1000 µg/mL: RCMB 05035, 72 h, read-out: DIZ
Bacillus subtilis [2] = test: Antibacterial activity against Bacillus subtilis RCMB 010063 at 1 mg/ml after 24 hrs by agar well diffusion method; conditions: RCMB 010063, 24 h, read-out: DIZ
Staphylococcus aureus [3] = test: Antibacterial activity against Staphylococcus aureus RCMB 010027 at 1 mg/ml after 24 hrs by agar well diffusion method; conditions: RCMB 010027, 24 h, read-out: DIZ
Escherichia coli [4] = test: Antibacterial activity against Escherichia coli RCMB 000103 at 1 mg/ml after 24 hrs by agar well diffusion method; conditions: for zone of inhibition at 1000 µg/mL: RCMB 000103, 24 h, read-out: DIZ
Aspergillus ochraceus [5] = test: Antifungal activity against Aspergillus ochraceus RCMB 02593 at 1 mg/ml after 72 hrs by agar well diffusion method; conditions: RCMB 02593, 72 h, read-out: DIZ
Pseudomonas aeruginosa [6] = test: Antibacterial activity against Pseudomonas aeruginosa RCMB 010043 at 1 mg/ml after 24 hrs by agar well diffusion method; conditions: for zone of inhibition at 1000 µg/mL: RCMB 010043, 24 h, read-out: DIZ
Pseudomonas aeruginosa [7] = test: Antibacterial activity against Pseudomonas aeruginosa RCMB 010043 after 24 hrs by twofold serial dilution method; conditions: RCMB 010043, 24 h
Aspergillus ochraceus [8] = test: Antifungal activity against Aspergillus ochraceus RCMB 02593
Bacillus subtilis [9] = test: Antibacterial activity against Bacillus subtilis RCMB 010063 after 24 hrs by twofold serial dilution method; conditions: RCMB 010063, 24 h
Staphylococcus aureus [10] = test: Antibacterial activity against Staphylococcus aureus RCMB 010027 after 24 hrs by twofold serial dilution method; conditions: RCMB 010027, 24 h
Candida albicans [11] = test: Antifungal activity against Candida albicans RCMB 05035
Escherichia coli [12] = test: Antibacterial activity against Escherichia coli RCMB 000103 after 24 hrs by twofold serial dilution method; conditions: RCMB 000103, 24 h
Staphylococcus aureus [13] = test: Antibacterial activity against Staphylococcus aureus RCMB 010027 at 25 ug/ml after 24 hrs by agar well diffusion method; conditions: RCMB 010027, 24 h, read-out: DIZ
Pseudomonas aeruginosa [14] = test: Antibacterial activity against Pseudomonas aeruginosa RCMB 010043 at 25 ug/ml after 24 hrs by agar well diffusion method; conditions: RCMB 010043, 24 h, read-out: DIZ
Bacillus subtilis [15] = test: Antibacterial activity against Bacillus subtilis RCMB 010063 at 25 ug/ml after 24 hrs by agar well diffusion method; conditions: RCMB 010063, 24 h, read-out: DIZ
Escherichia coli [16] = test: Antibacterial activity against Escherichia coli RCMB 000103 at 25 ug/ml after 24 hrs by agar well diffusion method; conditions: RCMB 000103, 24 h, read-out: DIZ
Candida albicans [17] = test: Antifungal activity against Candida albicans RCMB 05035 at 25 ug/ml after 72 hrs by agar well diffusion method; conditions: RCMB 05035, 72 h, read-out: DIZ
Aspergillus ochraceus [18] = test: Antifungal activity against Aspergillus ochraceus RCMB 02593 at 25 ug/ml after 72 hrs by agar well diffusion method; conditions: RCMB 02593, 72 h, read-out: DIZ

Compound | zone of inhibition at 1000 µg/mL (Candida albicans [1]) [mm] | zone of inhibition at 1000 µg/mL (Bacillus subtilis [2]) [mm] | zone of inhibition at 1000 µg/mL (Staphylococcus aureus [3]) [mm] | zone of inhibition at 1000 µg/mL (Escherichia coli [4]) [mm] | zone of inhibition at 1000 µg/mL (Aspergillus ochraceus [5]) [mm] | diameter of the inhibition zone (DIZ) (Pseudomonas aeruginosa [6]) | MIC (Pseudomonas aeruginosa [7]) [µg/mL] | MIC (Aspergillus ochraceus [8]) [µg/mL] | zone of inhibition at 1000 µg/mL (Pseudomonas aeruginosa [6]) [mm] | MIC (Bacillus subtilis [9]) [µg/mL] | MIC (Staphylococcus aureus [10]) [µg/mL] | MIC (Candida albicans [11]) | MIC (Escherichia coli [12]) [µg/mL] | other results
COc1ccc2cc(C(C)C(=O)Nc3ccc(C)cc3)ccc2c1 (stereo not drawn) | 12.8 | 17.2 | 16.1 | 15.6 | 14.7 | inactive |  |  |  |  |  |  |  | 
COc1ccc2cc(C(C)C(=O)Nc3ccc(N(C(C)=O)c4ccccc4)cc3)ccc2c1 (stereo not drawn) | 9.3 | 17.1 | 16.2 | 14.6 | 12.4 | inactive |  |  |  |  |  |  |  | 
COc1ccc2cc(C(C)C(=O)NCc3n[nH]c(=S)n3N)ccc2c1 (stereo not drawn) | 20.6 | 23.7 | 21.6 | 20.3 | 19.4 |  | 62.5 (≈ 175 µM) | 15.6 (≈ 43.7 µM) | 15.9 | 0.97 (≈ 2.71 µM) | 3.9 (≈ 10.9 µM) | 62.5 µg/mL (≈ 175 µM) | 7.81 (≈ 21.8 µM) | 
COc1ccc2cc(C(C)C(=O)Nc3ccc(S(=O)(=O)NC(C)=O)cc3)ccc2c1 (stereo not drawn) | 17.8 | 23.4 | 23.3 | 21.3 | 18.6 |  | 125 (≈ 293 µM) | 15.6 (≈ 36.6 µM) | 14.5 | 0.97 (≈ 2.27 µM) | 0.97 (≈ 2.27 µM) | 31.2 µg/mL (≈ 73.3 µM) | 3.9 (≈ 9.14 µM) | 
COc1ccc2cc(C(C)C(=O)NC(C)C(=O)O)ccc2c1 (stereo not drawn) | 10.6 | 15.8 | 15.1 | 14.3 | 12.7 | inactive |  |  |  |  |  |  |  | 
COc1ccc2cc(C(C)C(=O)Nc3ccc(S(=O)(=O)Nc4ncccn4)cc3)ccc2c1 (stereo not drawn) |  | 28.7 | 25.3 | 21.6 | 11.7 |  | 3.9 (≈ 8.43 µM) | 3.9 (≈ 8.43 µM) | 16.8 | 7.81 (≈ 16.9 µM) | 0.24 (≈ 0.519 µM) | inactive | 3.9 (≈ 8.43 µM) | diameter of the inhibition zone (DIZ) (Candida albicans [1]): inactive
COc1ccc2cc(C(C)C(=O)N/C(=C/c3ccc(Cl)cc3)C(=O)Nc3ccc(C)cc3)ccc2c1 (stereo not drawn) | 13.6 | 19.6 | 19.9 | 14.3 | 14.8 | inactive |  |  |  |  |  |  |  | 
O=C(O)c1cn(C2CC2)c2cc(N3CCNCC3)c(F)cc2c1=O [CIPROFLOXACIN] |  |  |  |  |  |  | 31.2 (≈ 94.3 µM) |  |  | 0.007 (≈ 0.0211 µM) | 0.06 (≈ 0.181 µM) |  | 1.95 (≈ 5.89 µM) | 
COc1ccc2cc(C(C)C(=O)Nc3ccc4c(c3)Sc3ccccc3N4)ccc2c1 (stereo not drawn) | 16.9 | 24.6 | 21.4 | 20.2 | 17.6 |  | 7.81 (≈ 18.3 µM) | 15.6 (≈ 36.6 µM) | 13.6 | 0.97 (≈ 2.27 µM) | 3.9 (≈ 9.14 µM) | 31.2 µg/mL (≈ 73.3 µM) | 7.81 (≈ 18.3 µM) | 
CC1(C)S[C@@H]2[C@H](NC(=O)[C@H](N)c3ccccc3)C(=O)N2[C@H]1C(=O)O [AMPICILLIN] |  |  |  |  |  |  |  |  |  |  |  |  |  | zone of inhibition at 25 µg/mL (Staphylococcus aureus [13]): 28.9 mm; zone of inhibition at 25 µg/mL (Pseudomonas aeruginosa [14]): 17.3 mm; zone of inhibition at 25 µg/mL (Bacillus subtilis [15]): 34.6 mm; zone of inhibition at 25 µg/mL (Escherichia coli [16]): 21.4 mm
COc1ccc2cc(C(C)C3=N/C(=C/c4ccc(F)cc4)C(=O)O3)ccc2c1 (stereo not drawn) | 19.9 | 20.6 | 20.3 | 19.3 | 18.3 |  | 62.5 (≈ 166 µM) | 15.6 (≈ 41.6 µM) | 15.3 | 3.9 (≈ 10.4 µM) | 7.81 (≈ 20.8 µM) | 125 µg/mL (≈ 333 µM) | 15.6 (≈ 41.6 µM) | 
COc1ccc2cc(C(C)C3=N/C(=C/c4ccc(Cl)cc4)C(=O)O3)ccc2c1 (stereo not drawn) |  | 15 | 13.9 |  | 14.5 | inactive |  |  |  |  |  |  |  | diameter of the inhibition zone (DIZ) (Candida albicans [1]): inactive; diameter of the inhibition zone (DIZ) (Escherichia coli [4]): inactive
OC(Cn1cncn1)(Cn1cncn1)c1ccc(F)cc1F [FLUCONAZOLE] |  |  |  |  |  |  |  | 1.95 (≈ 6.37 µM) |  |  |  | 0.24 µg/mL (≈ 0.784 µM) |  | zone of inhibition at 25 µg/mL (Candida albicans [17]): 26.4 mm; zone of inhibition at 25 µg/mL (Aspergillus ochraceus [18]): 21.9 mm
COc1ccc2cc(C(C)C(=O)Nc3ccc(Nc4ccccc4)cc3)ccc2c1 (stereo not drawn) |  | 15.4 | 13.9 |  | 17.6 | inactive |  |  |  |  |  |  |  | diameter of the inhibition zone (DIZ) (Candida albicans [1]): inactive; diameter of the inhibition zone (DIZ) (Escherichia coli [4]): inactive
COc1ccc2cc(C(C)C(=O)NCC(=O)O)ccc2c1 (stereo not drawn) | 20.6 | 16.4 | 14.2 | 13.4 | 20.9 | inactive |  |  |  |  |  |  |  | 
COc1ccc2cc(C(C)C(=O)Nc3ccc(S(=O)(=O)Nc4cc(C)on4)cc3)ccc2c1 (stereo not drawn) | 16.5 | 21.7 | 20.6 | 19.9 | 17.3 |  | 1.95 (≈ 4.19 µM) | 7.81 (≈ 16.8 µM) | 13 | 62.5 (≈ 134 µM) | 31.2 (≈ 67.1 µM) | 250 µg/mL (≈ 537 µM) | 3.9 (≈ 8.38 µM) | 
COc1ccc2cc(C(C)C(=O)NNC(=O)C(C)c3ccc4cc(OC)ccc4c3)ccc2c1 (stereo not drawn) | 13.5 | 19.4 | 17.9 | 17.1 | 16 | inactive |  |  |  |  |  |  |  | 
COc1ccc2cc(C(C)C(=O)NCCNC(=O)C(C)c3ccc4cc(OC)ccc4c3)ccc2c1 (stereo not drawn) |  | 14.5 | 13.1 |  | 12.6 | inactive |  |  |  |  |  |  |  | diameter of the inhibition zone (DIZ) (Candida albicans [1]): inactive; diameter of the inhibition zone (DIZ) (Escherichia coli [4]): inactive
COc1ccc2cc(C(C)C(=O)Nc3ccc(C(=O)O)cc3)ccc2c1 (stereo not drawn) | 15.6 | 23.7 | 21.6 | 20.3 | 19.4 |  | 15.6 (≈ 44.7 µM) | 7.81 (≈ 22.4 µM) | 15.9 | 3.9 (≈ 11.2 µM) | 0.24 (≈ 0.687 µM) | 62.5 µg/mL (≈ 179 µM) | 1.95 (≈ 5.58 µM) | 
COc1ccc2cc(C(C)C(=O)NCc3n[nH]c(=S)[nH]3)ccc2c1 (stereo not drawn) | 18.8 | 23.9 | 21.9 | 20.9 | 20.2 |  | 31.2 (≈ 91.3 µM) | 7.81 (≈ 22.8 µM) | 16.8 | 0.97 (≈ 2.83 µM) | 3.9 (≈ 11.4 µM) | 31.2 µg/mL (≈ 91.3 µM) | 7.81 (≈ 22.8 µM) | 
COc1ccc2cc(C(C)C(=O)Nc3ccc(CC(=O)O)cc3)ccc2c1 (stereo not drawn) | 12.2 | 18.4 | 17.3 | 16.6 | 13.9 | inactive |  |  |  |  |  |  |  | 
